Earlier results in patent US9120805B2, “Substituted pyrrolo[1,2-A]pyrazin-1-ones and pyrazolo[1,5-A]pyrazin-4-ones as inhibitors of tankyrase and poly(ADP-ribose)polymerase activity” (Merck Patent GmbH, priority 2012, dated 2015).

Key:
[1] = tested on: DLD-1-cancer cells; conditions: literature (Huang et al., 2009); cited from earlier work
[2] = tested on: β-catenin; conditions: literature (Huang et al., 2009); by increasing AXIN1 and AXIN2 levels; cited from earlier work

Oc1nc(-c2ccc(C(F)(F)F)cc2)nc2c1CSCC2 [XAV939]
growth of DLD-1-cancer cells [1]: inhibits growth | Wnt-stimulated accumulation of β-catenin [2]: blocked Wnt-stimulated accumulation of β-catenin
